Measured values from US11066412B2, “Substituted pyrrolo[2,1-a]phthalazines and benzo[g]pyrrolo[2,1-a]phthalazines for the treatment of cancer” (Academia Sinica, priority 2017, dated 2021).
Read-outs that look alike come from different tables or passages of the source.

Experiments:
CD31 = experiment: immunohistochemical staining of tumor xenograft sections, blood vessels; format: in vivo, nude mice; settings: for blood vessel in tumors (anti-CD31 staining): compared to vehicle control, FIG. 15, panel A; for CD31 marker intensity compared to control: day 9, H526 tumors, FIG. 15, panel B
Experimental: (§1) Tumor xenograft tissue sections on the slides were deparaffinized in xylene twice for 7 min each time. The slides were then rehydrated in graded ethanol, serially from 100% to 70%, followed by rinsing in dH2O. Antigen retrieval was performed using citrate buffer (0.01M, pH 6.0) with incubation in a cooker for 50 mins followed by ambient temperature cooling for 30 min. and then dH2O rinsing. Later slides were subjected to immunohistochemical (IHC) staining with primary antibodies (anti-rabbit CD31 antibody and anti-mouse γ-H2AX antibody) obtained from Abeam® following the manufacturer's instructions (Novolink Polymer Detection system, Leica Biosystems, Wetzlar, Germany).^11 After IHC processing, the slides were scanned digitally using the Panoramic 250 Flash II whole slide scanner and analyzed by 3DHISTECH Panoramic viewer software (3DHISTECH Ltd., Budapest, Hungary).
The density of blood vessels within the tumors was evaluated by immunofluorescence staining using anti-CD31 (a marker of endothelial cells) (FIG. 15, panel A). […] After IHC, slides were scanned by Panoramic 250 Flash II whole slide scanner. The expression of CD31 in tissue sections were determined from 15 different fields of 3 tumor sections and counts were averaged using 3DHISTECH Panoramic viewer software (3DHISTECH Ltd., Budapest, Hungary). […] However, on day 9, CD31 marker intensity was reduced to 4% in tumors treated with BO-2590L or vatalanib compared to control (FIG. 15, panel B). […] On day 9, CD31 marker intensity in cisplatin-treated tumor was 19% of control, which was less extent than BO-2590L or vatalanib.

[1] = test system: vinblastine-resistant sub-cell line (CCRF-CEM/VBL); experiment: in vitro cytotoxicity, PrestoBlue assay; format: cell-based, human; settings: for IC50: 72-hr incubation, mean ± STDEV of three to six experiments, read-out: IC50 CEM/VBL; for resistance factor (IC50 CEM/VBL vs IC50 of the parent cell line): number in brackets
Experimental: (§2) All representative compounds of Formulae (I-A) and (I-B) were first evaluated for their in vitro cytotoxicity to human lymphoblastic leukemia cell line (CCRF-CEM) and its vinblastine-resistant sub-cell line (CCRF-CEM/VBL) (see Table 1).
(§3) After a 72-hr incubation in various concentrations of the newly synthesized compounds, the cytotoxic effects of them to all cell lines were determined by the PrestoBlue®(Invitrogen) assay using a microplate spectrophotometer. Briefly, at the end of treatment, an aliquot of PrestoBlue® solution was added and then cells were incubated at 37° C. for 1-2 hr. The absorbance at 570 and 600 nm was measured with a microplate reader. […] The ICso is defined by the concentration required to inhibit tumor cell growth by 50%. Data represent the mean±STDEV of three to six independent experiments for each compound.

colon cancer HCT-116 = experiment: in vitro cytotoxicity, PrestoBlue assay; format: cell-based, human; settings: Table 2
Experimental: as §2, §3

[2] = test system: non-small cell lung cancer H460; experiment: in vitro cytotoxicity, PrestoBlue assay; format: cell-based, human; settings: Table 2
Experimental: as §2, §3

pancreatic cancer PacaS1 = experiment: in vitro cytotoxicity, PrestoBlue assay; format: cell-based, human; settings: Table 2
Experimental: as §2, §3

H82 = experiment: in vitro cytotoxicity to SCLC cells; format: cell-based, human; settings: Table 3
Experimental: as §3

H1417 = experiment: in vitro cytotoxicity to SCLC cells; format: cell-based, human; settings: Table 3
Experimental: as §3

H211 = experiment: in vitro cytotoxicity to SCLC cells; format: cell-based, human; settings: Table 3
Experimental: as §3

H146 = experiment: in vitro cytotoxicity to SCLC cells; format: cell-based, human; settings: Table 3
Experimental: as §3

γ-H2AX = experiment: immunohistochemical staining of tumor xenograft sections, DNA damage marker; format: in vivo, nude mice; settings: for γ-H2AX in tumors: FIG. 16, panel A; for γ-H2AX signals, quantitative analysis: FIG. 16, panel B
Experimental: as §1, with “3[…]” for “3DHISTECH”, “(3[…]” for “(3DHISTECH”
As BO-2590L is a DNA damaging agent, we thus investigated the effect of BO-2590L on the level of a DNA damage marker, γ-H2AX, via the use of immunohistochemical staining.

[3] = test system: human SCLC H526 xenografts; experiment: tumor growth in xenograft-bearing nude mice; format: in vivo; settings: micelle formulation (Kolliphor/TWEEN 80/PEG400/ethanol/D5W); BO-2768 at 20 mg/kg twice daily; FIG. 12, panel A
Experimental: Athymic nude mice bearing the nu/nu gene were obtained from the National Laboratory Animal Center (Taipei, Taiwan). Male nude mice (6 weeks or older weighing 20-24 g or more) were used for all human tumor xenografts. The tested compounds were intravenously administered through tail vein. Tumor volume was determined by measuring the length x width x height (or width) with calipers. […] For tumor-bearing nude mice during the course of the experiment, the % body weight changes refer to: (the total weight on reading day/the total weight on day treatment started)×100.
In all experiments, the tumor cells were subcutaneously implanted in nude mice, and the BO-2590L was administered via tail vein when the tumor size reaching approximate 100 mm^3. […]
To confirm the therapeutic activity of BO-2590L, comparative experiments carried out by known chemotherapeutic agents, such as vatanalib and cisplatin, were also performed. Briefly, the H526 xenograft-bearing mice were divided into 4 groups which were treated with vehicle, BO-2590L (10 mg/kg, QD×9), vatalanib (100 mg/kg, QD×9), and cisplatin (4 mg/kg, Q2D×3), respectively. Results are illustrated in FIG. 11.
Results are illustrated in FIGS. 12 and 13.

H526 cells = experiment: single cell electrophoresis (comet) assay; format: cell-based; settings: FIG. 2
Source text: The data is the average of 3 independent experiments.
To this purpose, cells were encapsulating in a low-melting-point agarose suspension on a microscope slide, then were lysed in neutral or alkaline (pH>13) condition, and electrophoresis of the suspended lysed cells. The term “comet” refers to the pattern of DNA migration through the electrophoresis gel, which often resembles a comet, and the intensity of the comet tail relative to the head reflects the number of DNA breaks.

[4] = body weight changes of xenograft-bearing nude mice; format: in vivo; settings: H526 xenograft mice
Experimental: Athymic nude mice bearing the nu/nu gene were obtained from the National Laboratory Animal Center (Taipei, Taiwan). Male nude mice (6 weeks or older weighing 20-24 g or more) were used for all human tumor xenografts. The tested compounds were intravenously administered through tail vein. Tumor volume was determined by measuring the length x width x height (or width) with calipers. The vehicle used for the tested compounds was normal saline (0.9% NaCl isotonic solution). For tumor-bearing nude mice during the course of the experiment, the % body weight changes refer to: (the total weight on reading day/the total weight on day treatment started)×100.

[5] = test system: human lymphoblastic leukemia cell line (CCRF-CEM); experiment: in vitro cytotoxicity, PrestoBlue assay; format: cell-based; settings: 72-hr incubation, mean ± STDEV of three to six experiments, read-out: IC50 CCRF-CEM
Experimental: as §2, §3

[6] = test system: small cell lung cancer H526; experiment: in vitro cytotoxicity, PrestoBlue assay; format: cell-based, human; settings: read-out: IC50 H526
EA.hy926 cells = experiment: Tube-Formation Assay; format: cell-based; settings: 24 hr pre-treatment, 48-hr incubation on matrigel; FIG. 4
Experimental: Angiogenesis is the process of generating new blood vessels derived as extensions from the existing vasculature. Performance of vascular behavior or monitoring tube formation can determine whether the compound is capable of interrupting angiogenesis. In this example, whether the compound of formula (I) interrupted angiogenesis was investigated using Tube-Formation Assay.
Briefly, EA.hy926 cells were treated with various concentrations of BO-2590 for 24 hr. After that, cells (5×10^5 cells/well) were suspended in 100 μl medium containing 1% FCS and subsequently seeded onto 96-well plate pre-coated with matrigel 1 h at 37° C. After a 48-hr incubation, tube-formation ability was examined under a phase microscope.

VEGFR-2 = biological target: T1, VEGFR-2 (Homo sapiens, UniProt P35968); experiment: VEGFR-2 activation, western blotting in EA.hy926 cells; format: cell-based; settings: EA.hy926 cells, 12 hr; FIG. 3
T1 construct: endogenous in cells; host or cells: EA.hy926 endothelial cells
T1 sequence (P35968 20-1356): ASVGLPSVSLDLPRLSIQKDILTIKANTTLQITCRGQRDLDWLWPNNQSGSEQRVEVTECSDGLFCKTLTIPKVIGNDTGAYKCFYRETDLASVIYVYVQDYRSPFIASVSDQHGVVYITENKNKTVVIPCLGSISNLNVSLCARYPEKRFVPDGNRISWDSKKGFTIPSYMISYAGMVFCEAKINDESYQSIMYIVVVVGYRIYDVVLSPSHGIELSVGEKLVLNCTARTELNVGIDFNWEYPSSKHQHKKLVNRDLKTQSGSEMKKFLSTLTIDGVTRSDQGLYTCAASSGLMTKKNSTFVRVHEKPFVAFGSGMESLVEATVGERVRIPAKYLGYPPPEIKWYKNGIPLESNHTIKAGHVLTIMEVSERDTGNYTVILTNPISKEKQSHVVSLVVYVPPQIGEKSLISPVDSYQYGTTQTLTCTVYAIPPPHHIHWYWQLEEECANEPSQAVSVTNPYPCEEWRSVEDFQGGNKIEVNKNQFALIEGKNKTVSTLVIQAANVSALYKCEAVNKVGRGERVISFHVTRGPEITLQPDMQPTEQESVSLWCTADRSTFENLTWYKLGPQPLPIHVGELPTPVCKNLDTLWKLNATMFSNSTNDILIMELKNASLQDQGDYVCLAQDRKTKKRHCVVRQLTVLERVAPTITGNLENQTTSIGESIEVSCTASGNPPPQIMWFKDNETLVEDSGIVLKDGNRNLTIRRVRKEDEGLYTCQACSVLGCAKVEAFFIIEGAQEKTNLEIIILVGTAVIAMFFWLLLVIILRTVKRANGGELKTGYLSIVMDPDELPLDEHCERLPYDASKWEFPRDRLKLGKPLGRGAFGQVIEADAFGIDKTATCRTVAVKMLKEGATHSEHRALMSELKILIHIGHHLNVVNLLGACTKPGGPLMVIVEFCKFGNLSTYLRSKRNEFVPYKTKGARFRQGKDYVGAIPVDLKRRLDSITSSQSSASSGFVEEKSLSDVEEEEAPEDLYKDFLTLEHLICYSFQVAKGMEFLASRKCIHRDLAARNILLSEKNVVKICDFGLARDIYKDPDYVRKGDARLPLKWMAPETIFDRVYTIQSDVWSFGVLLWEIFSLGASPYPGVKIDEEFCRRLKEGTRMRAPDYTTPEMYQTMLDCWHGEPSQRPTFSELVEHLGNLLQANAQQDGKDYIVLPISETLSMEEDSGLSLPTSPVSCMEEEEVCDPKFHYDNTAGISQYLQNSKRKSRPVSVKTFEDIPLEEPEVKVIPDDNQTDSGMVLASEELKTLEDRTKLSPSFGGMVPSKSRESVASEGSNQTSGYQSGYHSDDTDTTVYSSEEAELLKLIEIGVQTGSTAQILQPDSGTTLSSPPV
Experimental: In the present example, BO-2590 and BO-2577 were subject to the test of their activity in suppressing VEGFR-2 by western blotting analysis. Briefly, the endothelial EA.hy926 cells were incubated with BO-2590 or BO-2577 at various concentrations for 12 hr. The primary antibodies, anti-VEGFR-2 and anti-p-VEGFR-2, were used to blot the proteins of total VEGFR-2 and p-VEGFR-2, respectively. Results are illustrated in FIG. 3.

pEGFP-N1 plasmid DNA = experiment: DNA cross-linking, alkaline agarose gel electrophoresis; format: biochemical; settings: 1-20 μM, 37° C., 2 hrs; FIG. 1
Experimental: In the present example, BO-2590, BO-2577 (Formula I-A) and BO-2698, BO-2755, BO-2762 and BO-2768 (Formula I-B) were tested for their DNA crosslinking activity, in which the cross-linking was analyzed by alkaline agarose gel electrophoresis. In brief, purified pEGFP-N1 plasmid DNA (1,500 ng) was mixed with various concentrations (1-20 μM) of the tested compounds in 40 μL binding buffer (3 mM sodium chloride/1 mM sodium phosphate, pH 7.4, and 1 mM EDTA). The reaction mixture was incubated at 37° C. for 2 hrs. At the end of reaction, the plasmid DNA was linearized by digestion with BamHI and followed by precipitation with ethanol. The DNA pellets were dissolved and denatured in alkaline buffer (0.5 N NaOH-10mM EDTA). An aliquot of 20 μL of DNA solution (1,000 ng) was mixed with 4 μL of 6× alkaline loading dye and then electrophoretically resolved on a 0.8% alkaline agarose gel with NaOH-EDTA buffer at 4° C. The electrophoresis was carried out at 18V for 22 h. After staining the gels with an ethidium bromide solution, the DNA was visualized under UV light. Results are illustrated in FIG. 1.

N.N.[Cl][Pt][Cl] [Cisplatin, reference compound]
blood vessel in tumors (anti-CD31 staining) (CD31): significantly reduced blood vessel
CD31 marker intensity compared to control (CD31): 19%
IC50 [1]: 8.88 ± 1.86 µM
resistance factor (IC50 CEM/VBL vs IC50 of the parent cell line) [1]: 0.54 ×
IC50 (colon cancer HCT-116): 9.17 ± 0.67 µM
IC50 [2]: 5.11 ± 0.22 µM
IC50 Paca SI (pancreatic cancer PacaS1): 27.04 ± 0.98 µM
IC50 (H82): 1.75 ± 0.39 µM
IC50 (H1417): 40.8 ± 5.97 µM
IC50 (H211): 0.78 ± 0.46 µM
IC50 (H146): 10.2 ± 2.99 µM
γ-H2AX in tumors (γ-H2AX): remarkably increased in γ-H2AX
γ-H2AX signals, quantitative analysis (γ-H2AX): time-dependently increased in γ-H2AX signals
tumor size [3]: slowly increased in size
DNA damage (comet tail) (H526 cells): inducing DNA breaks in a dose dependent manner
deleterious effects on the bodyweight of the test animals ([4]; micelle formulation, FIG. 12, panel B): none
body weight ([4]; BO-2590L 10 mg/kg for consecutive 9 days, cisplatin 4 mg/Kg, FIG. 11, panel B): severe body weight lost
IC50 [5]: 16.5 ± 0.9 µM
IC50 ([6]; Table 2): 0.73 ± 0.07 µM
IC50 ([6]; Table 3): 1.75 ± 0.71 µM

Clc1ccc(Nc2nnc(Cc3ccncc3)c3ccccc23)cc1 [vatalanib]
blood vessel in tumors (anti-CD31 staining) (CD31): significantly reduced blood vessel
CD31 marker intensity compared to control (CD31): 4%
tube formation (EA.hy926 cells): suppressed tube formation, but at much higher concentrations
γ-H2AX in tumors (γ-H2AX): much less level
γ-H2AX signals, quantitative analysis (γ-H2AX): moderate level of γ-H2AX

CCc1c(CO)c(CO)c2c3ccccc3c(N3CCOCC3)nn12 [BO-2577, (3-Ethyl-6-morpholinopyrrolo[2,1-a]phthalazine-1,2-diyl)-dimethanol]
IC50 ([1]; Homo sapiens, CCRF-CEM): 2.55 ± 0.12 µM
resistance factor (IC50 CEM/VBL vs IC50 of the parent cell line) [1]: 0.84 ×
IC50 (colon cancer HCT-116; Homo sapiens, HCT-116): 11.5 ± 1.66 µM
IC50 ([2]; Homo sapiens, NCI-H460): 18.57 ± 0.18 µM
IC50 Paca SI (pancreatic cancer PacaS1): 13.02 ± 0.93 µM
melting point: 180 to 182 °C
p-VEGFR-2 protein levels (VEGFR-2): marked suppression in p-VEGFR-2 protein levels
total protein levels of VEGFR-2 (VEGFR-2): did not significantly change the total protein levels of VEGFR-2
formation of DNA interstrand crosslinks (pEGFP-N1 plasmid DNA): induced DNA interstrand crosslinks
IC50 ([5]; Homo sapiens, CCRF-CEM): 3.04 ± 0.38 µM
IC50 ([6]; Homo sapiens, NCI-H526, Table 2): 0.75 ± 0.12 µM
